Marks after values point to notes of the source that are not given here.
Key:
Type in all cases: in vivo
[1] = test system: STZ-diabetic mice; assay: Fasting blood glucose of diabetic mice during six days of treatment; conditions: for activity in controlling the rise of blood glucose levels in streptozotocin diabetic animals (in words) / control of fasting blood sugar compared with sitagliptin and the other compounds (in words): 50 mg/kg/day; for activity in controlling the rise of blood glucose levels in streptozotocin diabetic animals (in words): 6-day interval; for control of fasting blood sugar compared with sitagliptin and the other compounds (in words): 6 days; for Blood glucose level, fasting: 50 mg/kg/day oral, diabetic mice, mean ± SEM
Description: Our objective was to test the efficacy of the synthesized compounds for their potential to reduce blood glucose in STZ-diabetic mice. The synthesized compounds Nos. 128, 129, 130, 131,140, 142 were expected to act through the inhibition of the DPP-IV enzyme, which is responsible for the degradation of the entero-peptide GLP-I. In turn, GLP-I increases insulin and decreases glucagon release from the pancreatic islets (β and α-cells respectively). So this part of the project was designed to study the effect of the synthesized gliptin simulated compounds on blood glucose levels and their efficacy to increase glucose utilization in diabetic mice through: • a. The effect of the tested compounds in a dose of 50 mg/kg/day on fasting blood glucose blood levels of diabetic mice during six days of treatment. • b. Oral glucose tolerance test (OGTT) through oral glucose loading, 2 h after treatment with single oral dose (50 mg/kg) of the tested compounds in 14 h overnight fasted mice. • c. OGTT through oral glucose loading, 2 h after treatment with the 6th oral dose (50 mg/kg) of the tested compounds in 14 h overnight fasted mice. • d. The effect of the pretreatment with the tested compounds at an oral dose of 50 mg/kg on blood glucose levels, 3 h before and 3 h after meal feeding (feeding for one hour only, then food was removed immediately) in 14 h overnight-fasted diabetic mice.
(§1) Blood samples were collected from the tail vein and the blood glucose level was determined. Curves of blood glucose levels (mg/dL) versus the time intervals (min) were constructed and the area under the curves (AUCs) were calculated by the method of calculation embedded in GraphPad Prism® v. 5.0 (GraphPad Software, San Diego, Calif., USA). AUCs of the curves of the different groups were compared and tested for significance against control groups.
All data are presented as means±SEM. Statistical significance was evaluated by analysis of variance (ANOVA) followed by Tukey-Kramer's post hoc test for multiple comparisons. The “t” of the paired data was used to test the significance of the values of the fasting blood glucose compared to the values before treatment. Statistical significance was accepted at a level of p<0.05.

[2] = test system: 14 h overnight fasted diabetic mice; assay: Oral glucose tolerance test (OGTT) after single dose; conditions: for glucose-lowering activity in OGTT compared with sitagliptin (in words): single dose 50 mg/kg; for Relative potency to sitagliptin (OGTT AUC) / AUC in OGTT, % change from diabetic control / AUC in OGTT, Δ from diabetic control / AUC in OGTT, X (arithmetic mean): single oral dose 50 mg/kg; for AUC in OGTT, X (arithmetic mean): AUC 0-120 min
Description: The oral glucose tolerance test was done in 14 h overnight fasted diabetic mice that were pretreated with a single oral dose of the tested compounds. Each of the tested agents was suspended in sodium carboxymethyl cellulose (CMC-Na) (1% in distilled water) and the dosing volume was adjusted to 10 ml/kg body weight per mouse. Then an oral glucose load was administered (2 g/kg) 2 h after drug treatment. Blood glucose levels were determined using the Accu-check Go® (Roche Diagnostics, Michigan, USA). Blood samples were collected just before drug administration (Fasting Blood glucose), then 2 h after drug treatment and before glucose loading. Blood samples collection was continued at 20, 40, 60 and 120 min intervals after glucose loading.
Animals were distributed between 17 groups (n=6) as follow: • a. Group 1: Animals were 14 h overnight-fasted normoglycemic mice and vehicle-treated (1% CMC-Na) at a dose of 10 ml/kg. • b. Group 2: Overnight fasted diabetic mice received the vehicle (1% CMC-Na) at a dosing volume of 10 ml/kg and served as a negative control. • c. Group 3: Overnight fasted diabetic mice received sitagliptin at a dose of 50 mg/kg in 1% CMC (in a volume of 10 ml/kg) and served as positive control. • a. Groups 4-17: Animals of these groups were overnight fasted diabetic mice received the tested compounds 128, 129, 130, 131, at a dose of 50 mg/kg in 1% CMC (volume of 10 ml/kg).

[3] = test system: overnight fasted diabetic mice; assay: OGTT after multiple doses (6 consecutive days); conditions: for AUC in OGTT, % change from diabetic control / AUC in OGTT, Δ from diabetic control / Relative potency to sitagliptin (OGTT AUC) / AUC in OGTT, X (arithmetic mean): 50 mg/kg oral for six days; for AUC in OGTT, X (arithmetic mean): 2 h before glucose loading, AUC 0-120 min
Description: The tested compounds were given daily by oral gavage for 6 consecutive days. On day 6, the overnight fasted diabetic mice were pretreated with the 6th oral dose of the tested compounds. Then an oral glucose was loaded (2 g/kg/10 ml b.w.) 2 h after drug treatment. Blood glucose levels were determined using the Accu-check Go® (Roche Diagnostics, Michigan, USA). Samples were collected just before drug administration (Fasting Blood glucose), then 2 h after drug treatment and before glucose administration. Sample collection was continued at 20, 40, 60 and 120 min intervals after glucose loading.
• b. Group 1: Animals of this group are 14 h overnight-fasted normoglycemic mice received the vehicle (1% CMC-Na) at a dosing volume of 10 ml/kg/day for six consecutive days. • c. Group 2: Overnight-fasted diabetic mice received the vehicle (1% CMC-Na) at a dosing volume of 10 ml/kg/day for six consecutive days and served as a negative control. • d. Group 3: Overnight-fasted diabetic mice received sitagliptin at a dose of 50 mg/kg/day for six consecutive days and served as positive control. • e. Groups 4-17: Animals in these groups were overnight-fasted diabetic mice and received the tested compounds 128, 129, 130, 131, at a dose of 50 mg/kg/day for six consecutive days (volume of 10 ml/kg). Effect on Blood Glucose Level after Introduction of Food for One Hour (≈Meal Tolerance Test) Rational of the Test

[4] = test system: 14 h overnight-fasted diabetic mice; assay: Blood glucose after introduction of food for one hour (meal tolerance test); conditions: for antihyperglycemic activity after introduction of food (blood glucose rise and total AUC(0-180), in words): 50 mg/kg, 3 h before introduction of food; for Area under the curve AUC(0-180) after meal feeding: Day 1, 50 mg/kg oral, 3 hr pretreated
Description: The rational of this test was to determine the ability of the tested compounds to modulate glucose utilization after the introduction of food, after 3 h of drug administration to 14 h overnight-fasted mice (feeding with normal diet was done for 1 hr only, then food was removed during the remaining time of the test). This model is analogous to oral glucose tolerance tests (OGTT) used clinically to evaluate glycemic control, except that the meal was composed of fats, proteins and carbohydrates, and thus was a more realistic representation of the nutritional makeup of normal food. The main purpose is that during meal digestion, food contents e.g. carbohydrates, proteins and fats, were reported to cause an increase in the production of the GLP-I from the L-cells in ileum and colon. The produced GLP-I goes into circulation directly and affects insulin secretion from pancreatic β-cells. Both the GPL-I and insulin levels are expected to be high especially in the presence of a […] inhibitor.
Animals were Distributed Between 17 Groups (n=6) as Follows: • a. Group 1. Animals of this group were overnight-fasted normoglycemic mice and received the vehicle (1% CMC-Na) at a volume of 10 ml/kg/day for 4 consecutive days. • b. Group 2: overnight-fasted diabetic mice received the vehicle (1% CMC-Na) at a volume of 10 ml/kg/day for 4 consecutive days and served as a negative control. • c. Group 3: overnight fasted diabetic mice received sitagliptin at a dose of 50 mg/kg/day for 4 consecutive days in 1% CMC (in a volume of 10 ml/kg) and served as positive control. • d. Groups 4-19: Animals of these groups were overnight-fasted diabetic mice and received the tested compounds 128, 129, 130, 131,140, 142 at a dose of 50 mg/kg/day for 4 consecutive days in 1% CMC (volume of 10 ml/kg). Food was introduced for one hour only then food was removed immediately. Blood glucose levels were determined just before and 3 h after drug administration and then at 0, 60, 120 and 180 min after meal. Blood Sampling and Blood Glucose Determination
as §1

Row | SMILES | activity in controlling the rise of blood glucose levels in streptozotocin diabetic animals (in words) [1] | control of fasting blood sugar compared with sitagliptin and the other compounds (in words) [1] | control of fasting blood sugar compared with sitagliptin and the other compounds (in words) ([1]; listed as 131) | glucose-lowering activity in OGTT compared with sitagliptin (in words) [2] | Relative potency to sitagliptin (OGTT AUC) [2] | AUC in OGTT, % change from diabetic control ([2]; 2 h before glucose loading) | AUC in OGTT, Δ from diabetic control ([2]; 2 h before glucose loading) | AUC in OGTT, X (arithmetic mean) ([2]; 2 h before glucose loading) | AUC in OGTT, % change from diabetic control [3] | AUC in OGTT, Δ from diabetic control [3] | Relative potency to sitagliptin (OGTT AUC) [3] | AUC in OGTT, X (arithmetic mean) [3] | relative potency in OGTT compared with sitagliptin (in words) ([3]; 6 consecutive days, 50 mg/kg) | antihyperglycemic activity after introduction of food (blood glucose rise and total AUC(0-180), in words) [4] | Area under the curve AUC(0-180) after meal feeding [4] | reduction in the total AUC compared to the diabetic control mice ([2]; single dose, 2 h before glucose loading, AUC 0-120) | Blood glucose level, fasting ([1]; Day 4) | Blood glucose level, fasting ([1]; Day 5) | Blood glucose level, fasting ([1]; Day 6)
1 | O=C(NCC(=O)N1CCn2c(nnc2C(F)(F)F)C1)c1ccc(Cl)cc1 [GLP-131] | significant activity | most consistent and extended activities | comparable to that of sitagliptin | higher glucose-lowering activity than sitagliptin | 1.52 | −36.88% | -18835 mg·min/dL | 32230* mg · dL^−1 · min | −49.59% | -26113 mg·min/dL | 1.31 | 26542* mg · dL^−1 · min | comparable or higher relative potency than sitagliptin | significant antihyperglycemic activity | 56340 ± mg · dL^−1 · min |  |  |  | 
2 | O=C(NCCC(=O)N1CCn2c(nnc2C(F)(F)F)C1)c1cccc(Cl)c1 [GLP-129] | significant activity | comparable to that of sitagliptin |  | less potent than sitagliptin | 0.45 | −10.93% | -5585 mg·min/dL | 45480 mg·min/dL | −11.76% | -6197 mg·min/dL | 0.31 | 46458 mg·min/dL |  | significant antihyperglycemic activity | 73248 ± mg · dL^−1 · min |  |  |  | 
3 | N[C@@H](CC(=O)N1CCn2c(nnc2C(F)(F)F)C1)Cc1cc(F)c(F)cc1F [Sitagliptin, sitagliptin, reference compound] |  |  |  |  | 1 | −24.20% | -12362 mg·min/dL | 38703* mg · dL^−1 · min | −37.85% | -19932 mg·min/dL | 1 | 32723 mg·min/dL |  | significant antihyperglycemic activity | 51776 ± mg · dL^−1 · min | 24.2% |  |  | 
4 | O=C(NCC(=O)N1CCn2c(nnc2C(F)(F)F)C1)c1cccc(Cl)c1 [GLP-128] | significant activity | least effective |  | higher glucose-lowering activity than sitagliptin | 1.2 | −29.15% | -14887 mg·min/dL | 36178* mg · dL^−1 · min | −11.93% | -6287 mg·min/dL | 0.32 | 46368 mg·min/dL |  | significant antihyperglycemic activity | 69336 ± mg · dL^−1 · min |  | 195.00 ± 27.49 mg/dL | 200.60 ± 23.21 mg/dL | 188.60 ± 15.86 mg/dL

Source: US10894794B1, “Substituted [1,2,4]triazolo[4,3-a]pyrazines as antidiabetics” (King Abdulaziz University, priority 2019, dated 2021)
